We go through eight compounds from PMC7414126 (Scientific Reports, 2020).

Series [1] addresses T1, hH2R (Homo sapiens, UniProt P25021). In words: β-Arrestin2 recruitment assay (split-luciferase complementation), HEK293T-ARRB2-H2R cells. The format is cell-based. As to conditions: read-out: pKb (β-arrestin2 recruitment) (converted). Set-up: expressed in transfected cells; host or cells: HEK293T-ARRB2-H2R cell line.
Procedure: One day prior to the experiment, the cells were detached with trypsin/EDTA (0.05%/0.2%) and were centrifuged (500 x g, 5 min). The cells were resuspended in Leibovitz’ L-15 medium + 5% FCS + 10 mM HEPES and the density of the suspension was adjusted to 1.25 x 10^6 cells/mL (agonist mode) or 1.4 x 10^6 cells/mL (antagonist mode). 80 µL (agonist mode) or 70 µL (antagonist mode) of the cell suspension were seeded in white, tissue culture-treated, flat bottom 96-well microtiter plates (Brand, Wertheim, Germany). The cells were incubated at 37 °C overnight in a water saturated atmosphere w/o additional CO2. […] In the meantime, serial dilutions of the tested compounds (10-fold concentrated with respect to the final concentration) were prepared in L-15 + 10 mM HEPES and pre-warmed to 37 °C. After the baseline-read, the dilutions of the test compounds (10 µL/well) were transferred to the 96-well plate. […] For the determination of antagonism, the dilutions of the test compounds (10 µL/well) were transferred to the 96-well plate directly after the addition of D-luciferin (as described above) and the baseline was recorded like in the agonist mode. […] Normalized data were fitted applying a four-parameter logistic fit yielding pIC50 values, which were then transformed into pKb values using the Cheng-Prusoff equation.^8 All data analysis was performed using Prism 5.0c (GraphPad, San Diego, CA, USA).
The target in series [2] is T2, NLuc-hH2R (Homo sapiens, UniProt P25021).
T2 construct: membrane signal peptide of the murine 5HT3A receptor (N); expressed in transfected cells
T2 sequence (P25021 whole entry): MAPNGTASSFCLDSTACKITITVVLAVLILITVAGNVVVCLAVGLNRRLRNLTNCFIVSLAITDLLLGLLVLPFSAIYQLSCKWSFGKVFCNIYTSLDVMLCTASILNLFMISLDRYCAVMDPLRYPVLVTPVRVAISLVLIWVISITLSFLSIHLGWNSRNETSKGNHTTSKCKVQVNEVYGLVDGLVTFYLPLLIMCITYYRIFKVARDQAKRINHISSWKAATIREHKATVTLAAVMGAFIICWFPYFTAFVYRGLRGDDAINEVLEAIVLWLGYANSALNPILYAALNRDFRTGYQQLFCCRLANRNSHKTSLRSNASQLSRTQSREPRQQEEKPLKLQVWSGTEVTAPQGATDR
Kind of series: NanoBRET saturation binding assay. The protocol: (§1) KG, Wertheim, Germany). The cells were then incubated at 37 °C in a humidified atmosphere (no additional CO2) overnight. […] After 60 min incubation time at 27 °C, 10 μL of the substrate furimazine, which was diluted according to manufacturer's protocol beforehand, were added. After 5 min of equilibration time at 27 °C, the measurement was started. […] After addition of the diluted substrate, the plate was placed inside the reader for 5 min to equilibrate. […] Dissociation experiments were conducted in wells, which have been preincubated with 8 as described above for association experiments. […] All measurements were performed on a TECAN InfiniteLumi plate reader (TECAN, Grödig, Austria) at 27 °C using the Blue2 NB (460 nm ± 35 nm, bandpass) and the Red NB (> 610 nm, longpass) filter combination with an integration time of 100 ms. For the kinetic experiments, integration time was increased to 500 ms for both channels to reduce noise. BRET ratios were calculated by dividing the acceptor emission (red NB) by the donor luminescence (Blue2 NB). For all BRET binding experiments, specific binding was calculated by subtracting non-specific binding from total binding yielding the “corrected BRET ratio”. For saturation binding experiments, total and non-specific binding were fitted simultaneously using the “one-site total and nonspecific binding” fit. Specific binding was fitted accordingly applying the “one-site specific binding” fit. […] The normalized competition binding curves were then fitted with a four-parameter logistic fit yielding pIC50-values. These were transformed into pKi-values using the Cheng-Prusoff equation[38].

Series [3] deals with T3, hH2R-Gsαs fusion protein (Homo sapiens, UniProt P25021).
T3 construct: made in house; host or cells: Sf9 insect cells (recombinant baculovirus), membrane preparation
T3 sequence (P25021+P63092 fused): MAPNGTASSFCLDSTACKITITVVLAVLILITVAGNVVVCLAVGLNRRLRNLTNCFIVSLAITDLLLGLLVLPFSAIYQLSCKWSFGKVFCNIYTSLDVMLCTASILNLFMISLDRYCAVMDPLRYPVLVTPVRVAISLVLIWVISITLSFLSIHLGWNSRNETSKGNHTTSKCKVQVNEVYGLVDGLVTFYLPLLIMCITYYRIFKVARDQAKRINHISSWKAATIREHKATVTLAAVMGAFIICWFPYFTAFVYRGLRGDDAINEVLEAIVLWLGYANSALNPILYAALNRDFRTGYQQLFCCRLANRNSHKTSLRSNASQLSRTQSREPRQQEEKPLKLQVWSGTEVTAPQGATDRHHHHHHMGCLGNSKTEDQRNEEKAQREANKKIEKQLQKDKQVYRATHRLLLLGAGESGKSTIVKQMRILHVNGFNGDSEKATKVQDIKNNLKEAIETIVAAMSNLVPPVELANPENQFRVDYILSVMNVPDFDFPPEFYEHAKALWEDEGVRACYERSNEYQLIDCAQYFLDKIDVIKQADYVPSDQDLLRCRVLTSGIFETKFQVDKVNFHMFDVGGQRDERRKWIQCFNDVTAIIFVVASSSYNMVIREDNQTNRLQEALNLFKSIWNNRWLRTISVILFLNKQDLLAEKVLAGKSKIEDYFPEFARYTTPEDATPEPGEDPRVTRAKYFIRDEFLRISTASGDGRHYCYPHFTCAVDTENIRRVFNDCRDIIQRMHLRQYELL
Kind of series: Radioligand competition binding with [3H]UR-DE257 on Sf9 membranes. Conditions: read-out: pKi (RL comp. binding Sf9 membranes) (converted). The protocol: (§2) All data analysis was performed using Prism 5.0c (GraphPad, San Diego, CA, USA).

Series [4] can be described thus: Chemical stability in binding buffer (HPLC). Format: physicochemical. The protocol:
The chemical stability of the fluorescent H2R ligands UR-KAT478 (8), UR-KAT515 (9) and UR-KAT514 (10) was investigated at physiological pH (7.4) in binding buffer (12.5 mM MgCl2, 1 mM EDTA and 75 mM Tris/HCl, pH 7.4)^1 and in case of UR-KAT514 (10) as well in a mixture of DMSO/binding buffer 1:1. Incubation was started by addition of 27.5 μL of a 2.5 mM solution of the respective compounds in DMSO/Millipore H2O 1:1, which were freshly prepared from a 5 mM stock solution in DMSO, to 522.5 μL of binding buffer or DMSO/binding buffer 1:1 yielding a final concentration of […]. The samples were shaken for up to 4 days at 700 rpm. After indicated time periods, a 70 μL aliquot was taken and diluted with 70 µL of a mixture of MeCN, Millipore H2O and 10% aqueous TFA (60:90:1). Prior to HPLC analysis, the samples were stored at -20 °C. 50 μL of the resulting solution were analyzed by HPLC as described in the experimental section. The absorption was detected at 220 nm. The blank HPLC run was performed under identical conditions without any ligand.

Series [5] addresses T1, hH2R. Kind of series: Flow cytometric saturation binding assay with HEK293T-hH2R-qs5-HA cells. Set-up: expressed in transfected cells; host or cells: HEK293T-hH2R-qs5-HA cells. Conditions: saturation binding at HEK293T-hH2R-qs5-HA cells; mean ± SEM; read-out: pKd (Flow cytometry) (converted). As for the experimental part: All flow cytometric measurements were performed with FACSCanto™II flow cytometer (Becton Dickinson, Heidelberg, Germany), equipped with an argon laser (488 nm) and a red diode laser (633 nm) (settings: FCS: A, log, 0 V; SSC: A, log, 252 V; ACP: A,H,W, log, 350 V or PerCP-Cy5-5: A,H, log 485 V or PE: A,H,W, log, 420 V) according to general protocols with minor modifications.^4,5 All measurements were performed in duplicate and recorded either in channel PerCP-Cy5 (Py-1, excitation: 488 nm), APC (BODIPY 630/650, excitation: 633 nm) or PE (TAMRA, excitation: 488 nm). Data acquisition was stopped after 10,000 gated events.
Cell culture and preparation of HEK293T-hH2R-qs5-HA cells was performed as described.^4 Briefly, cells were maintained in 25 or 175 cm^2 flasks (Sarstedt, Nümbrecht, Germany) in a humidified atmosphere (95% air, 5% CO2) at 37 °C using Dulbecco`s Modified Eagle`s Medium supplemented with 2 mM L-glutamine (Sigma-Aldrich, Munich, Germany), 10% FCS, 400 µg/mL geneticin (G418), and 100 µg/mL hygromycin B (AG Scientific, San Diego, CA, USA). On the day of the experiment, cells were detached with trypsin/EDTA (0.05%/0.2%) and centrifuged (500 x g, 5 min). The cell pellet was resuspended in Leibovitz’ L-15 medium containing 1% FCS and the cell density was adjusted to 1 x 10^6 cells/mL. The serial dilutions of the tested fluorescent ligands and famotidine (competitor, for non-specific binding) were prepared in DMSO/H2O (1:1, v/v). All incubation steps were performed in 96-well Primaria^TM plates (CORNING, NY, USA). 200 µL of the adjusted cell suspension were either added to 2 µL of DMSO/H2O (1:1, v/v, total binding) or to 2 µl of famotidine (300-fold excess over the fluorescent ligand, non-specific binding). Incubation was started by addition of 2 µL of the respective fluorescent ligand in different concentrations (100-fold concentrated with respect to the final concentration). […] Samples were transferred to 5 mL polystyrol FACS tubes (Sarstedt, Nümbrecht, Germany) and measured immediately. […]
A general note: A flow cytometer gives signals particle by particle.

The target of series [6] is T2, NLuc-hH2R. Kind of series: BRET-based competition binding with fluorescent ligand 8. Conditions: competition with 8 (c = 50 nM), live HEK293T cells stably expressing NLuc-hH2R, 60 min; mean ± SEM; read-out: pKi (NanoBRET) (converted). As for the experimental part:
as §1

Series [7] has as its target hH2R. As to conditions: [125I]-iodoaminopotentidine, re-calculated from published Ki; cited from earlier work.
The target of series [8] is T3, hH2R-Gsαs fusion protein. In words: Radioligand saturation binding on Sf9 membranes. As to conditions: membranes of Sf9 insect cells expressing hH2R-Gsαs. As for the experimental part:
as §2
Supplementary Figure S7. […] Saturation binding assay was performed as previously described.^3

Series [9] deals with T4, hH2R-Gsαs fusion protein (Homo sapiens, UniProt P25021+P63092).
T4 construct: made in house; host or cells: Sf9 insect cells (recombinant baculovirus), membrane preparation
T4 sequence (P25021+P63092 fused): as above
Conditions: [3H]UR-DE257; cited from earlier work.

[10] abbreviates: representative NanoBRET saturation isotherm, result from single experiment, HEK293T NLuc-hH2R, read-out: Kd* (single experiment).
The mark [11] stands for this setting: saturation binding, live HEK293T cells stably expressing NLuc-hH2R, mean ± SEM, read-out: pKd (NanoBRET) (converted).

Where two headings read alike, the source gives them in different places.

T1 sequence (P25021 whole entry): as the sequence (P25021 whole entry) above

Take `O=C(CCCCCNC(=O)COc1ccc(/C=C/C2=[N+]3C(=Cc4ccc(-c5cccs5)n4[B-]3(F)F)C=C2)cc1)NCCCCNc1c(NCCCOc2cccc(CN3CCCCC3)c2)c(=O)c1=O` [Compound 10]: in series [1], the Kb was 8.13 nM. For the same compound, the Kd in series [2] (setting [10]) was 2.99 nM; in series [2] (setting [11]), 2.57 nM; in series [5], 13.8 nM. Moreover, the Ki in [3] was 4.47 nM. Moreover, in [4] (BB/DMSO 1:1, rt), the “Adsorption to plastic vessel” value is recorded as “reduced adsorption”. In addition, the “Chemical stability (degradation)” value in series [4] (binding buffer pH 7.4, rt) is on record as “no chemical degradation”. Also, in series [4] (binding buffer pH 7.4, rt, after one hour), the “HPLC signal of compound after incubation (adsorption to plastic vessel)” value is “almost no signal”.
For the compound `CCCCCCCCCCCCNC(=N)NCCCc1sc(N)nc1C` [Compound 11, reference compound], the Ki in [6] is 1020 nM; in series [3], 251 nM.
As to `CN/C(=N/CCSCc1nc[nH]c1C)NC#N` [Compound 2, cimetidine], the “pKi (RL comp. binding CHO membranes)” value in [7] was 6.18[32].
In series [8], `[3H]CC([3H])C(=O)NCCCCCCNc1c(NCCCOc2cccc(CN3CCCCC3)c2)c(=O)c1=O` (stereo not drawn) [Compound 7] gave a Kd of 11.2 nM.
Consider `Cc1nc(N)sc1CCCNC(=N)NCCCCCCCCNC(=N)NCCCc1sc(N)nc1C` [Compound 12, reference compound], for which the values for the Ki in series [6] and in series [3] were 1320 nM and 457 nM, respectively.
As for `CN(C)c1ccc2c(-c3ccc(C(=O)NCCCCNc4c(NCCCOc5cccc(CN6CCCCC6)c5)c(=O)c4=O)cc3C(=O)[O-])c3ccc(N(C)C)cc3[o+]c2c1` [Compound 9, 2-(3,6-Bis(dimethylamino)xanthylium-9-yl)-5-((4-((3,4-dioxo-2-((3-(3-(piperidin-1-ylmethyl)phenoxy)propyl)amino)cyclo-but-1-en-1-yl)amino)butyl)carbamoyl)benzoate], in series [1], the Kb is 66.1 nM. Also, the Kd is 143 nM in series [2] (setting [10]), 145 nM in [2] (setting [11]) and 562 nM in series [5]. Also, the Ki in [3] was 100 nM. Also, the “Chemical stability (decomposition)” value in series [4] (binding buffer pH 7.4, rt, 24 h incubation) is on record as “no decomposition”.
Consider `CNC(=C[N+](=O)[O-])NCCSCc1ccc(CN(C)C)o1` [Compound 3, ranitidine], for which the “pKi (RL comp. binding CHO membranes)” value in series [7] was 7.07[32].
For `NC(N)=Nc1nc(CSCCC(N)=NS(N)(=O)=O)cs1` [Compound 4, famotidine], the Ki in series [6] is 11.5 nM. For the same compound, the “pKi (RL comp. binding Sf9 membranes)” value in series [9] is 6.87[28]. For the same compound, the “pKi (RL comp. binding CHO membranes)” value in series [7] is 7.80[32].
